Results on 37 compounds are retold here after patent publication US10106542B2, “Substituted 6,7-dihydropyrazolo[1,5-a]pyrazines as negative allosteric modulators of mGluR2 receptors” (Janssen Pharmaceutica NV, priority 2013, dated 2018).

In general, Emax refers to the size of the effect at its maximum, as opposed to the concentration needed.

Some results are limits rather than exact numbers.

The target in the assay is T1, human mGlu2 receptor (Homo sapiens, UniProt Q14416).
T1 construct: expressed in transfected cells; host or cells: CHO cells (membrane preparation)
As to the kind of experiment: [35S]GTPγS binding assay (mGluR2 negative allosteric modulation). In kind it is biochemical. To be noted: for IC50: membranes from CHO cells transfected with human mGlu2 receptor, glutamate 60 μM, pIC50 = −log IC50 (M), read-out: GTPγS - hmGluR2 anGT pIC50 (converted); for Emax: relative maximal effect: maximal % inhibition relative to the control glutamate response, read-out: GTPγS - hmGluR2 anGT Emax. The method, then: 1) [^35S]GTPγS binding assay
The [^35S]GTPγS binding assay is a functional membrane-based assay used to study G-protein coupled receptor (GPCR) function whereby incorporation of a non-hydrolysable form of GTP, [^35S]GTPγS (guanosine 5′-triphosphate, labelled with […] ^35S), is measured. The G-protein a subunit catalyzes the exchange of guanosine 5′-diphosphate (GDP) by guanosine triphosphate (GTP) and on activation of the GPCR by an agonist, [^35S]GTPγS, becomes incorporated and cannot be cleaved to continue the exchange cycle (Harper (1998) Current Protocols in Pharmacology 2.6.1-10, John Wiley & Sons, Inc.). […] Here we describe the use of the [^35S]GTPγS binding assay using membranes from cells transfected with the human mGlu2 receptor and adapted from Schaffhauser et al. (Molecular Pharmacology, 2003, […]) for the detection of the negative allosteric modulation (NAM) properties of the compounds of this invention.
CHO-cells were cultured to pre-confluence and stimulated with 5 mM butyrate for 24 h. Cells were then collected by scraping in PBS and cell suspension was centrifuged (10 min at 4000 RPM in benchtop centrifuge). Supernatant was discarded and pellet gently resuspended in 50 mM Tris-HCl, pH 7.4 by mixing with an Ultra Turrax homogenizer. The suspension was centrifuged at 12,400 RPM (Sorvall F14S-6x250Y) for 10 minutes and the supernatant discarded. The pellet was homogenized in 5 mM Tris-HCl, pH 7.4 using an Ultra Turrax homogenizer and centrifuged again (13,000 RPM, 20 min, 4° C.). The final pellet was resuspended in 50 mM Tris-HCl, pH 7.4 and stored at −80° C. in appropriate aliquots before use. Protein concentration was determined by the Bradford method (Bio-Rad, USA) with bovine serum albumin as standard.
Measurement of mGluR2 negative allosteric modulatory activity of test compounds was performed as follows. Test compounds and glutamate were diluted in assay buffer containing 10 mM HEPES acid, 10 mM HEPES salt, pH 7.4, 100 mM NaCl, 3 mM MgCl2 and 10 μM GDP. Human mGlu2 receptor-containing membranes were thawed on ice and diluted in assay buffer supplemented with 18 μg/ml saponin. […] After addition of [^35S]GTPγS (f.c. 0.1 nM), assay mixtures were shaken briefly and further incubated to allow [^35S]GTPγS incorporation on activation (30 minutes, 30° C.). Final assay mixtures contained 7 μg of membrane protein in 10 mM HEPES acid, 10 mM HEPES salt, pH 7.4, 100 mM NaCl, 3 mM MgCl2, 10 μM GDP and 10 μg/ml saponin. Total reaction volume was 200 μl. Reactions were terminated by rapid filtration through Unifilter-96 GF/B plates (Perkin Elmer, Massachusetts, USA) using a 96-well filtermate universal harvester. Filters were washed 6 times with ice-cold 10 mM NaH2PO4/10 mM Na2HPO4, pH 7.4. Filters were then air-dried, and 30 μl of liquid scintillation cocktail (Microscint-O) was added to each well. Membrane-bound radioactivity was counted in a Topcount.
The concentration-response curves of representative compounds of the present invention were generated using the Lexis software interface (developed at J&J). Data were calculated as % of the control glutamate response, defined as the response that is generated upon addition of an EC80-equivalent concentration of glutamate.
Background: GTPγS is a poorly hydrolysed GTP analogue; its binding reports G protein activation.

T1 sequence (Q14416 19-872): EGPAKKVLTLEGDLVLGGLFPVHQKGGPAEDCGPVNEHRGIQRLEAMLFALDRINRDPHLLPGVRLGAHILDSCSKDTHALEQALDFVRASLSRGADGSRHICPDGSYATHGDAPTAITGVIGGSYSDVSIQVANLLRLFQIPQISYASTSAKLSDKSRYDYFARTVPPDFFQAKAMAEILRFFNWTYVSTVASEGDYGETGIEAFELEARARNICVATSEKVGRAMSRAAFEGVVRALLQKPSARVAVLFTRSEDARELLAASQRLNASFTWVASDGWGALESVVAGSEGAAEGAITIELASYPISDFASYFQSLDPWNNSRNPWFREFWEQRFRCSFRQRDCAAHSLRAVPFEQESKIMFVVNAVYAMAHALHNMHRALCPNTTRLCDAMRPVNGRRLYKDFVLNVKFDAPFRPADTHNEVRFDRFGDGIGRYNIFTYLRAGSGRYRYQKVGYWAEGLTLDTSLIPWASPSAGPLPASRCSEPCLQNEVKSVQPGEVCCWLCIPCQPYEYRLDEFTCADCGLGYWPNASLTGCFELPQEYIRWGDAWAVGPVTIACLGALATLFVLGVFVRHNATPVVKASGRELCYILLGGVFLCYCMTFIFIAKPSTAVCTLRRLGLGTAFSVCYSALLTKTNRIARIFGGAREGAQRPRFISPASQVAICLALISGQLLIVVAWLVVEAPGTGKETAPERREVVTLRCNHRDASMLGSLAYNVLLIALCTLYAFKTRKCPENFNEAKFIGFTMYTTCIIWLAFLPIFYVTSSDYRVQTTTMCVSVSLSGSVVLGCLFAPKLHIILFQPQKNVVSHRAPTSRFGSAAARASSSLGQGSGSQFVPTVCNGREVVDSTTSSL

Take `CCOc1cc(-c2cnn3c2C(=O)N(c2ccc(Cl)c(Cl)c2)C[C@@H]3C)ccn1` [compound 133]: the IC50 was 8.32e-09 M and the Emax turned out to be 104%.

For the compound `CCc1cc(-c2cnn3c2C(=O)N(c2ccc(Cl)c(Cl)c2)C[C@@H]3C)ccn1` [compound 134], the IC50 is 3.24e-09 M and the maximal response (Emax) turned out to be 104%.

As for `CC(C)Oc1cc(-c2cnn3c2C(=O)N(c2ccc(Cl)c(Cl)c2)C[C@@H]3C)ccn1` [compound 137], the IC50 was 1.82e-08 M and the Emax was found to be 107%.

With `CC(C)Oc1cc(-c2cnn3c2C(=O)N(c2ccc(C(F)(F)F)cc2)C[C@@H]3C)ccn1` [compound 138], the IC50 is 6.76e-08 M and the Emax is 105%.

As to `Cc1cc(-c2cnn3c2C(=O)N(c2ccc(Br)cc2)C[C@@H]3C)ccn1` [compound 139], the IC50 is 3.63e-08 M and the Emax was 106%.

`Cc1cc(-c2cnn3c2C(=O)N(c2ccc(C(C)(C)C)cc2)C[C@@H]3C)ccn1` [compound 141]: the IC50 is 6.17e-08 M and the Emax was 102%.

For `Cc1cc(-c2cnn3c2C(=O)N(c2ccc(C(C)O)cc2)C[C@@H]3C)ccn1` (stereo partly drawn) [compound 149, (7S)-5-[4-(1-Hydroxyethyl)phenyl]-7-methyl-3-(2-methyl-4-pyridyl)-6,7-dihydropyrazolo[1,5-a]pyrazin-4-one], the IC50 was above 5.01e-05 M and the Emax was 49%.

Regarding `Cc1cc(-c2cnn3c2C(=O)N(c2ccc(C(F)(F)F)c(OC(C)C)c2)C[C@@H]3C)ccn1` [compound 154], the IC50 is 2e-08 M and the maximal effect (Emax) was found to be 104%.

Consider `Cc1cc(-c2cnn3c2C(=O)N(c2ccc(C4CC4)cc2)C[C@@H]3C)ccn1` [compound 156, (7S)-5-(4-Cyclopropylphenyl)-7-methyl-3-(2-methyl-4-pyridyl)-6,7-dihydropyrazolo[1,5-a]pyrazin-4-one], for which the IC50 is 5.62e-08 M and the Emax amounted to 106%.

Consider `COc1cc(Cl)ccc1N1C[C@H](C)n2ncc(-c3ccnc(C)c3)c2C1=O` [compound 161], for which the IC50 is 1.55e-05 M and the Emax is 76%.

With `Cc1cc(-c2cnn3c2C(=O)N(c2ccc(Cl)c(OC(F)F)c2)C[C@@H]3C)ccn1` [compound 163], the IC50 was 1.1e-08 M and the Emax was determined as 103%.

`Cc1cc(-c2cnn3c2C(=O)N(c2ccc(OC(C)C(F)(F)F)cc2)C[C@@H]3C)ccn1` (some centres unmarked) [compound 165]: the IC50 was 1.95e-08 M and the Emax worked out at 102%.

As for `Cc1cc(-c2cnn3c2C(=O)N(c2ccc(Cl)c(Cl)c2)C[C@@H]3C)cc[n+]1[O-]` [compound 170, (7S)-5-(3,4-dichlorophenyl)-7-methyl-3-(2-methyl-1-oxido-pyridin-1-ium-4-yl)-6,7-dihydropyrazolo[1,5-a]pyrazin-4-one], the IC50 is 7.24e-08 M and the Emax is 107%.

For `C[C@H]1CN(c2ccc(C(F)(F)F)cc2)C(=O)c2c(-c3ccnc(C4CC4)c3)cnn21` [compound 173], the IC50 was 4.37e-09 M and the Emax was 106%.

As for `C[C@H]1CN(c2ccc(C(F)(F)F)c(Cl)c2)C(=O)c2c(-c3ccnc(OCCF)c3)cnn21` [compound 177], the IC50 was 9.33e-09 M and the Emax worked out at 105%.

On to `CNc1cc(-c2cnn3c2C(=O)N(c2ccc(Cl)cc2)C[C@@H]3C)ccn1` [compound 178], for which the IC50 is 2.4e-08 M and the maximal effect (Emax) turned out to be 107%.

`CNc1cc(-c2cnn3c2C(=O)N(c2ccc(C(F)(F)F)c(C#N)c2)C[C@@H]3C)ccn1` [compound 179]: the IC50 was 3.63e-08 M and the Emax came to 103%.

As for `Cc1cc(-c2cnn3c2C(=O)N(c2ccc(C(F)(F)F)cc2)CC3C(F)F)ccn1` (centres unmarked) [compound 181, 7-(Difluoromethyl)-3-(2-methyl-4-pyridyl)-5-[4-(trifluoromethyl)phenyl]-6,7-dihydropyrazolo[1,5-a]pyrazin-4-one], the IC50 is 4.17e-07 M and the maximum response (Emax) amounted to 103%.

As for `Cc1cc(-c2cnn3c2C(=O)N(c2ccc(Cl)cn2)C[C@@H]3C)ccn1` [compound 187], the IC50 is 3.24e-07 M and the Emax amounted to 108%.

For the compound `C[C@H]1CN(c2ccc(C(F)(F)F)cn2)C(=O)c2c(-c3ccncc3)cnn21` [compound 190], the IC50 is 2.09e-07 M and the Emax worked out at 105%.

Turning to `Cc1cc(-c2cnn3c2C(=O)N(c2ccc(C(F)(F)F)c(C)n2)C[C@@H]3C)ccn1` [compound 192, (7S)-7-Methyl-3-(2-methyl-4-pyridyl)-5-[6-methyl-5-(trifluoromethyl)-2-pyridyl]-6,7-dihydropyrazolo[1,5-a]pyrazin-4-one], the IC50 is 7.41e-09 M and the maximum response (Emax) worked out at 106%.

As for `Cc1cc(-c2cnn3c2C(=O)N(c2cc(C)c(C(F)(F)F)cn2)C[C@@H]3C)ccn1` [compound 193], the IC50 is 1.91e-08 M and the maximal effect (Emax) was found to be 103%.

As to `Cc1cc(-c2cnn3c2C(=O)N(c2ccc(C(F)(F)F)cn2)C[C@@H]3C)cc(C)n1` [compound 194], the IC50 was 1.38e-07 M and the Emax turned out to be 107%.

Regarding `CCOc1ccc(Cl)c(N2C[C@H](C)n3ncc(-c4ccnc(C)c4)c3C2=O)n1` [compound 195], the IC50 is 4.07e-06 M and the maximal effect (Emax) amounted to 92%.

Take `Cc1cc(-c2cnn3c2C(=O)N(c2ccc(Cl)c(C)n2)C[C@@H]3C)ccn1` [compound 196]: the IC50 is 5.01e-08 M and the Emax was 107%.

On to `Cc1cc(-c2cnn3c2C(=O)N(c2cc(Cl)c(C)cn2)C[C@@H]3C)ccn1` [compound 198], for which the IC50 is 9.12e-08 M and the Emax was determined as 104%.

Consider `CCOc1ccc(C(F)(F)F)c(N2C[C@H](C)n3ncc(-c4ccnc(C)c4)c3C2=O)n1` [compound 199], for which the IC50 is 2.57e-05 M and the Emax came out at 67%.

For the compound `Cc1cc(-c2cnn3c2C(=O)N(c2ccc(Cl)c(Cl)n2)C[C@@H]3C)ccn1` [compound 202], the IC50 was 1.02e-08 M and the Emax came to 103%.

As for `Cc1cc(-c2cnn3c2C(=O)N(c2cc(Cl)c(Cl)cn2)C[C@@H]3C)ccn1` [compound 203], the IC50 was 6.76e-09 M and the Emax turned out to be 105%.

Regarding `COc1nc(N2C[C@H](C)n3ncc(-c4ccnc(C)c4)c3C2=O)ccc1Cl` [compound 206], the IC50 is 1.78e-08 M and the maximal effect (Emax) stood at 111%.

As for `COc1nc(N2C[C@H](C)n3ncc(-c4ccnc(N5CCC5)c4)c3C2=O)ccc1C(F)(F)F` [compound 209], the IC50 is 6.46e-09 M and the Emax was found to be 104%.

In the case of `Cc1cc(-c2cnn3c2C(=O)N(c2ccc(C(F)(F)F)cn2)CC3)ccn1` [compound 211], the IC50 is 3.72e-06 M and the Emax was found to be 92%.

Consider `Cc1cc(-c2cnn3c2C(=O)N(c2ccc(C(F)(F)F)cc2)CC3C(F)(F)F)ccn1` (centres unmarked) [compound 238, 3-(2-Methyl-4-pyridyl)-7-(trifluoromethyl)-5-[4-(trifluoromethyl)phenyl]-6,7-dihydropyrazolo[1,5-a]pyrazin-4-one], for which the IC50 is 2.14e-06 M and the Emax worked out at 103%.

For the compound `CNc1cc(-c2cnn3c2C(=O)N(c2ccc(C(F)(F)F)cc2)C[C@@H]3C)cc(C)n1` [compound 241], the IC50 is 1.82e-08 M and the Emax is 109%.

For `CNc1cc(-c2cnn3c2C(=O)N(c2ccc(C(F)(F)F)cc2)C[C@@H]3C)cc(F)n1` [compound 243], the IC50 is 2.24e-08 M and the maximal effect (Emax) amounted to 116%.

With `Cc1cc(-c2cnn3c2C(=O)N(c2ccc(Cl)cc2Cl)CC3)ccn1` [compound 244], the IC50 was 8.71e-06 M and the Emax was determined as 80%.

`C[C@H]1CN(c2ccc(C(F)(F)F)c(CF)c2)C(=O)c2c(-c3ccnc(N(C)C)c3)cnn21` [compound 246]: the IC50 was 4.17e-09 M and the Emax is 116%.
